*1 amine or outer side, *2 acyl side, *3 side chain or, on linkers, in order; H or OH if unused. Where a SMILES comes first, the peptide text is derived from it. Side-chain parts run from the residue outwards. [ ]: non-standard residue; d: D form. The star is where a group is joined. C20 diacid = O=C(O)CCCCCCCCCCCCCCCCCCC(=O)*; C18 diacid = O=C(O)CCCCCCCCCCCCCCCCC(=O)*; γGlu = O=C(O)[C@H](CCC(=O)[*:2])N[*:1]; 4Pal = N[C@@H](Cc1ccncc1)C(=O)O; αMeL = CC(C)C[C@](C)(N)C(=O)O; Orn = NCCC[C@H](N)C(=O)O; AEEA = NCCOCCOCC(=O)O; Aib = CC(C)(N)C(=O)O

As usually defined, the Ki is a dissociation constant, usually derived from enzyme kinetics or from competition with a known ligand.

The target of this assay is T1, human GLP-1R (Homo sapiens, UniProt P43220).
T1 construct: expressed in transfected cells; crude membranes
T1 sequence (P43220 24-463): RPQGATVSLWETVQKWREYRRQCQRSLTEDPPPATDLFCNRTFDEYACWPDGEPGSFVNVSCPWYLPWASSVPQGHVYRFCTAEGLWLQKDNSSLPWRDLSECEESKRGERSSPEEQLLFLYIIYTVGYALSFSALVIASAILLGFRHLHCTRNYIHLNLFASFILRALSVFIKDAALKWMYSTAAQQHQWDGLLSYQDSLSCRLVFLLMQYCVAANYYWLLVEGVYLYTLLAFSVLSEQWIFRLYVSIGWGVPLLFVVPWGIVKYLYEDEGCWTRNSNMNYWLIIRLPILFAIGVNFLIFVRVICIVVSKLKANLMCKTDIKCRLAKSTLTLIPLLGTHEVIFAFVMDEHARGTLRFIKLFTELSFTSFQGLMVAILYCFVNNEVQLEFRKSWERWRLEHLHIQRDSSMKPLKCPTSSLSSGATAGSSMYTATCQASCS
Kind of assay: [125I]-GLP-1 binding, SPA with WGA beads, 0.1% bacitracin. The conditions noted are these: geometric mean, read-out: hGLP1R Ki. In outline: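 Binding buffer was 25 mM HEPES pH 7.4 with 2.5 mM CaCl2, 1 mM MgCl2, 0.1% (w/v) bacitracin, 0.003% Tween-20 and EDTA-free protease inhibitors. Four-parameter regression gave IC50, converted to Ki (geometric mean, SEM, n independent days).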
Turning to `CC[C@H](C)[C@H](NC(=O)[C@H](Cc1ccccc1)NC(=O)[C@@H](NC(=O)CNC(=O)[C@H](CCC(=O)O)NC(=O)C(C)(C)NC(=O)[C@@H](N)Cc1ccc(O)cc1)[C@@H](C)O)C(=O)N[C@@H](CO)C(=O)N[C@@H](CC(=O)O)C(=O)N[C@@H](Cc1ccc(O)cc1)C(=O)N[C@@H](CO)C(=O)N[C@H](C(=O)N[C@@](C)(CC(C)C)C(=O)N[C@@H](CC(C)C)C(=O)N[C@@H](CC(=O)O)C(=O)N[C@@H](CCCN)C(=O)N[C@@H](CCCCNC(=O)COCCOCCNC(=O)COCCOCCNC(=O)CC[C@H](NC(=O)CCCCCCCCCCCCCCCCCCC(=O)O)C(=O)O)C(=O)N[C@@H](Cc1c[nH]cn1)C(=O)N[C@@H](CCC(N)=O)C(=O)NC(C)(C)C(=O)N[C@@H](CC(=O)O)C(=O)N[C@@H](Cc1ccccc1)C(=O)N[C@H](C(=O)N[C@@H](CCC(=O)O)C(=O)N[C@@H](Cc1ccncc1)C(=O)N[C@@H](CC(C)C)C(=O)N[C@@H](CC(C)C)C(=O)N[C@@H](CCC(=O)O)C(=O)N[C@@H](CCC(N)=O)C(=O)NCC(=O)N1CCC[C@H]1C(=O)N[C@@H](CO)C(=O)N[C@@H](CO)C(=O)NCC(=O)N[C@@H](C)C(=O)N1CCC[C@H]1C(=O)N1CCC[C@H]1C(=O)N1CCC[C@H]1C(=O)N[C@@H](CO)C(N)=O)C(C)C)[C@@H](C)CC` [Example 81] (H-Y[Aib]EGTFISDYSI[αMeL]LD[Orn]K([AEEA-AEEA-γGlu-C20 diacid])HQ[Aib]DFVE[4Pal]LLEQGPSSGAPPPS-NH2), the Ki was determined as 714 nM.

Turning to `CC[C@H](C)[C@H](NC(=O)[C@H](Cc1ccccc1)NC(=O)[C@@H](NC(=O)CNC(=O)[C@H](CCC(=O)O)NC(=O)C(C)(C)NC(=O)[C@@H](N)Cc1ccc(O)cc1)[C@@H](C)O)C(=O)N[C@@H](CO)C(=O)N[C@@H](CC(=O)O)C(=O)N[C@@H](Cc1ccc(O)cc1)C(=O)N[C@@H](CO)C(=O)N[C@H](C(=O)N[C@@](C)(CC(C)C)C(=O)N[C@@H](CC(C)C)C(=O)N[C@@H](CC(=O)O)C(=O)N[C@@H](CCCN)C(=O)N[C@@H](CCCCNC(=O)COCCOCCNC(=O)COCCOCCNC(=O)CC[C@H](NC(=O)CCCCCCCCCCCCCCCCCCC(=O)O)C(=O)O)C(=O)N[C@@H](Cc1c[nH]cn1)C(=O)N[C@@H](CCC(N)=O)C(=O)NC(C)(C)C(=O)N[C@@H](CC(=O)O)C(=O)N[C@@H](Cc1ccccc1)C(=O)N[C@H](C(=O)N[C@@H](CCC(=O)O)C(=O)N[C@@H](Cc1ccncc1)C(=O)N[C@@H](CC(C)C)C(=O)N[C@@H](CC(C)C)C(=O)N[C@@H](CCC(=O)O)C(=O)NCC(=O)NCC(=O)N1CCC[C@H]1C(=O)N[C@@H](CO)C(=O)N[C@@H](CO)C(=O)NCC(=O)N[C@@H](C)C(=O)N1CCC[C@H]1C(=O)N1CCC[C@H]1C(=O)N1CCC[C@H]1C(=O)N[C@@H](CO)C(N)=O)C(C)C)[C@@H](C)CC` [Example 82] (H-Y[Aib]EGTFISDYSI[αMeL]LD[Orn]K([AEEA-AEEA-γGlu-C20 diacid])HQ[Aib]DFVE[4Pal]LLEGGPSSGAPPPS-NH2), the inhibition constant Ki was found to be 388 nM.

With `CC[C@H](C)[C@H](NC(=O)[C@H](Cc1ccccc1)NC(=O)[C@@H](NC(=O)CNC(=O)[C@H](CCC(=O)O)NC(=O)C(C)(C)NC(=O)[C@@H](N)Cc1ccc(O)cc1)[C@@H](C)O)C(=O)N[C@@H](CO)C(=O)N[C@@H](CC(=O)O)C(=O)N[C@@H](Cc1ccc(O)cc1)C(=O)N[C@@H](CO)C(=O)N[C@H](C(=O)N[C@@](C)(CC(C)C)C(=O)N[C@@H](CC(C)C)C(=O)N[C@@H](CC(=O)O)C(=O)N[C@@H](CCC(=O)O)C(=O)N[C@@H](CCCCNC(=O)COCCOCCNC(=O)COCCOCCNC(=O)CC[C@H](NC(=O)CCCCCCCCCCCCCCCCCCC(=O)O)C(=O)O)C(=O)N[C@@H](Cc1c[nH]cn1)C(=O)N[C@@H](CCC(N)=O)C(=O)NC(C)(C)C(=O)N[C@@H](CC(=O)O)C(=O)N[C@@H](Cc1ccccc1)C(=O)N[C@H](C(=O)N[C@@H](CCC(=O)O)C(=O)N[C@@H](Cc1ccncc1)C(=O)N[C@@H](CC(C)C)C(=O)N[C@@H](CC(C)C)C(=O)N[C@@H](C)C(=O)N[C@H](C(=O)NCC(=O)N1CCC[C@H]1C(=O)N[C@@H](CO)C(=O)N[C@@H](CO)C(=O)NCC(=O)N[C@@H](C)C(=O)N1CCC[C@H]1C(=O)N1CCC[C@H]1C(=O)N1CCC[C@H]1C(=O)N[C@@H](CO)C(N)=O)[C@@H](C)O)C(C)C)[C@@H](C)CC` [Example 83] (H-Y[Aib]EGTFISDYSI[αMeL]LDEK([AEEA-AEEA-γGlu-C20 diacid])HQ[Aib]DFVE[4Pal]LLATGPSSGAPPPS-NH2), the Ki was 452 nM.

For `CC[C@H](C)[C@H](NC(=O)[C@H](Cc1ccccc1)NC(=O)[C@@H](NC(=O)CNC(=O)[C@H](CCC(=O)O)NC(=O)C(C)(C)NC(=O)[C@@H](N)Cc1ccc(O)cc1)[C@@H](C)O)C(=O)N[C@@H](CO)C(=O)N[C@@H](CC(=O)O)C(=O)N[C@@H](Cc1ccc(O)cc1)C(=O)N[C@@H](CO)C(=O)N[C@H](C(=O)N[C@@](C)(CC(C)C)C(=O)N[C@@H](CC(C)C)C(=O)N[C@@H](CC(=O)O)C(=O)N[C@@H](CCC(=O)O)C(=O)N[C@@H](CCCCNC(=O)COCCOCCNC(=O)COCCOCCNC(=O)CC[C@H](NC(=O)CCCCCCCCCCCCCCCCCCC(=O)O)C(=O)O)C(=O)N[C@@H](Cc1c[nH]cn1)C(=O)N[C@@H](CCC(N)=O)C(=O)NC(C)(C)C(=O)N[C@@H](CC(=O)O)C(=O)N[C@@H](Cc1ccccc1)C(=O)N[C@H](C(=O)N[C@@H](CCC(=O)O)C(=O)N[C@@H](Cc1ccncc1)C(=O)N[C@@H](CC(C)C)C(=O)N[C@@H](CC(C)C)C(=O)N[C@@H](C)C(=O)N[C@@H](CCC(N)=O)C(=O)NCC(=O)N1CCC[C@H]1C(=O)N[C@@H](CO)C(=O)N[C@@H](CO)C(=O)NCC(=O)N[C@@H](C)C(=O)N1CCC[C@H]1C(=O)N1CCC[C@H]1C(=O)N1CCC[C@H]1C(=O)N[C@@H](CO)C(N)=O)C(C)C)[C@@H](C)CC` [Example 84] (H-Y[Aib]EGTFISDYSI[αMeL]LDEK([AEEA-AEEA-γGlu-C20 diacid])HQ[Aib]DFVE[4Pal]LLAQGPSSGAPPPS-NH2), the inhibition constant (Ki) amounted to 325 nM.

With `CC[C@H](C)[C@H](NC(=O)[C@H](Cc1ccccc1)NC(=O)[C@@H](NC(=O)CNC(=O)[C@H](CCC(=O)O)NC(=O)C(C)(C)NC(=O)[C@@H](N)Cc1ccc(O)cc1)[C@@H](C)O)C(=O)N[C@@H](CO)C(=O)N[C@@H](CC(=O)O)C(=O)N[C@@H](Cc1ccc(O)cc1)C(=O)N[C@@H](CO)C(=O)N[C@H](C(=O)N[C@@](C)(CC(C)C)C(=O)N[C@@H](CC(C)C)C(=O)N[C@@H](CC(=O)O)C(=O)N[C@@H](CCC(=O)O)C(=O)N[C@@H](CCCCNC(=O)COCCOCCNC(=O)COCCOCCNC(=O)CC[C@H](NC(=O)CCCCCCCCCCCCCCCCCCC(=O)O)C(=O)O)C(=O)N[C@@H](Cc1c[nH]cn1)C(=O)N[C@@H](CCC(N)=O)C(=O)NC(C)(C)C(=O)N[C@@H](CC(=O)O)C(=O)N[C@@H](Cc1ccccc1)C(=O)N[C@H](C(=O)N[C@@H](CCC(=O)O)C(=O)N[C@@H](Cc1ccncc1)C(=O)N[C@@H](CC(C)C)C(=O)N[C@@H](CC(C)C)C(=O)N[C@@H](C)C(=O)N[C@@H](C)C(=O)NCC(=O)N1CCC[C@H]1C(=O)N[C@@H](CO)C(=O)N[C@@H](CO)C(=O)NCC(=O)N[C@@H](C)C(=O)N1CCC[C@H]1C(=O)N1CCC[C@H]1C(=O)N1CCC[C@H]1C(=O)N[C@@H](CO)C(N)=O)C(C)C)[C@@H](C)CC` [Example 85], the Ki was 220 nM.

Regarding `CC[C@H](C)[C@H](NC(=O)[C@H](Cc1ccccc1)NC(=O)[C@@H](NC(=O)CNC(=O)[C@H](CCC(=O)O)NC(=O)C(C)(C)NC(=O)[C@@H](N)Cc1ccc(O)cc1)[C@@H](C)O)C(=O)N[C@@H](CO)C(=O)N[C@@H](CC(=O)O)C(=O)N[C@@H](Cc1ccc(O)cc1)C(=O)N[C@@H](CO)C(=O)N[C@H](C(=O)N[C@@](C)(CC(C)C)C(=O)N[C@@H](CC(C)C)C(=O)N[C@@H](CC(=O)O)C(=O)N[C@@H](CCC(=O)O)C(=O)N[C@@H](CCCCNC(=O)COCCOCCNC(=O)COCCOCCNC(=O)CC[C@H](NC(=O)CCCCCCCCCCCCCCCCCCC(=O)O)C(=O)O)C(=O)N[C@@H](Cc1c[nH]cn1)C(=O)N[C@@H](CCC(N)=O)C(=O)NC(C)(C)C(=O)N[C@@H](CC(=O)O)C(=O)N[C@@H](Cc1ccccc1)C(=O)N[C@H](C(=O)N[C@@H](CCC(=O)O)C(=O)N[C@@H](Cc1ccncc1)C(=O)N[C@@H](CC(C)C)C(=O)N[C@@H](CC(C)C)C(=O)N[C@@H](C)C(=O)NCC(=O)NCC(=O)N1CCC[C@H]1C(=O)N[C@@H](CO)C(=O)N[C@@H](CO)C(=O)NCC(=O)N[C@@H](C)C(=O)N1CCC[C@H]1C(=O)N1CCC[C@H]1C(=O)N1CCC[C@H]1C(=O)N[C@@H](CO)C(N)=O)C(C)C)[C@@H](C)CC` [Example 86], the Ki turned out to be 108 nM.

Regarding `CC[C@H](C)[C@H](NC(=O)[C@H](Cc1ccccc1)NC(=O)[C@@H](NC(=O)CNC(=O)[C@H](CCC(=O)O)NC(=O)C(C)(C)NC(=O)[C@@H](N)Cc1ccc(O)cc1)[C@@H](C)O)C(=O)N[C@@H](CO)C(=O)N[C@@H](CC(=O)O)C(=O)N[C@@H](Cc1ccc(O)cc1)C(=O)N[C@@H](CO)C(=O)N[C@H](C(=O)N[C@@](C)(CC(C)C)C(=O)N[C@@H](CC(C)C)C(=O)N[C@@H](CC(=O)O)C(=O)N[C@@H](CCCN)C(=O)N[C@@H](CCCCNC(=O)COCCOCCNC(=O)COCCOCCNC(=O)CC[C@H](NC(=O)CCCCCCCCCCCCCCCCC(=O)O)C(=O)O)C(=O)N[C@@H](Cc1c[nH]cn1)C(=O)N[C@@H](CCC(N)=O)C(=O)NC(C)(C)C(=O)N[C@@H](CC(=O)O)C(=O)N[C@@H](Cc1ccccc1)C(=O)N[C@H](C(=O)N[C@@H](CCC(=O)O)C(=O)N[C@@H](Cc1ccncc1)C(=O)N[C@@H](CC(C)C)C(=O)N[C@@H](CC(C)C)C(=O)N[C@@H](CCC(=O)O)C(=O)N[C@@H](C)C(=O)NCC(=O)N1CCC[C@H]1C(=O)N[C@@H](CO)C(=O)N[C@@H](CO)C(=O)NCC(=O)N[C@@H](C)C(=O)N1CCC[C@H]1C(=O)N1CCC[C@H]1C(=O)N1CCC[C@H]1C(=O)N[C@@H](CO)C(N)=O)C(C)C)[C@@H](C)CC` [Example 87] (H-Y[Aib]EGTFISDYSI[αMeL]LD[Orn]K([AEEA-AEEA-γGlu-C18 diacid])HQ[Aib]DFVE[4Pal]LLEAGPSSGAPPPS-NH2), the Ki is 849 nM.

Source of the values: patent US12723063B2, “GIPR-agonist compounds” (Eli Lilly and Company, priority 2019, dated 2026).
